Assay results: patent US11434267B2, “Peptides having reduced toxicity that stimulate cholesterol efflux” (The Regents of the University of California, priority 2013, dated 2022)
Positions of bridges follow the written chain, without caps; N, C: chain ends. Non-standard residues stand in square brackets, D forms with d. No end group written: not given here. R8 = C=CCCCCCC[C@@](C)(N)C(=O)O; Cit = NC(=O)NCCC[C@H](N)C(=O)O; S5 = C=CCCC[C@](C)(N)C(=O)O

Tested on: C57Bl/6 mice
Test: not given
Format: in vivo
Settings: 300 mg/kg IP, male chow-fed C57Bl/6 mice, 4 and 6 h
Description: The high-dose cytotoxic response of ATI-5261 observed in rat, rabbit and cynomolgus monkey is additionally recapitulated in mice (FIG. 4). Male chow-fed C57bl/6 mice were injected intraperitonelly (IP) with 30 or 300 mg/kg of lipid-fee ATI-5261. Blood was collected via the retro-orbital plexus 4 h after peptide injection and plasma subsequently obtained for measurement of CPK (Panel A) and ALT and AST activities (Panel B, ALT left bars, AST, right bars). Values are means±SD, n=4 mice per group.
This example illustrates that aromatic phenylalanine residues associated with the non-polar surface of ATI-5261 contributed to the majority of the peptide toxicity (FIG. 5). […] Blood was collected via retro-orbital plexus 4 h after injection for isolation of plasma. Levels of plasma CPK (Panel A), ALT (panel B) and AST (Panel C) were determined as described in FIG. 1. Values are means±SD, n=4 mice per group.
The concentrations of plasma lipids in C57Bl/6 mice following administration of the aliphatic analogs of ATI-5261 was also determined. […] All values (mg/dl) are means±SD, n=4, determined at 4 and 6 h post treatment with peptide.
In the case of “EARSKAEEWLAALRELAEELLARAKS [Peptide T5505-12]”, the “TG elevating effect (plasma TG, cholesterol)” value (“TG elevating effect” below) is reported as “produced low toxicity and greatly ablated TG elevating effects”. In the case of “T5505-9: ATI-5261 analog with L24A; W9L substitutions (EVRSKLEELLAALRELAEELLARAKS; synthetic amphipathic alpha-helix cholesterol efflux peptide T5505-9, LeuATI-5261 analog)”, the “TG elevating effect” value is reported as “markedly reduced the increase in plasma CPK and AST as well as TG elevating activity”. In the case of “EVRSKLEEWLAALRELAEELLARAKS [Peptide T4883-6]”, the “TG elevating effect” value is reported as “further reduced cytotoxic response and TG elevating effects”. For “EVRSKLEEWLAALRELAEELAARLKS [Peptide T4883-7]”, the “TG elevating effect” value was “further reduced cytotoxic response and TG elevating effects”. For “EVRSKLEEWLAALRELAEELLARLKS [Peptide T5055-13]”, the “TG elevating effect” value was “greatly attenuated”.

Same assay, conditions: 300 mg/kg IP, male chow-fed C57Bl/6 mice, 4 h
With “EARSKAEEWLAALRELAEELLARAKS [Peptide T5505-12]” the “cytotoxic/toxic response (plasma CPK, ALT, AST)” value (“cytotoxic/toxic response” for short) was “produced low toxicity and greatly ablated TG elevating effects”. For “T5505-9: ATI-5261 analog with L24A; W9L substitutions (EVRSKLEELLAALRELAEELLARAKS; synthetic amphipathic alpha-helix cholesterol efflux peptide T5505-9, LeuATI-5261 analog)”, the “muscle toxicity (plasma CPK activity)” value was “markedly reduced the increase in plasma CPK and AST as well as TG elevating activity” and the “plasma ALT / AST” value was “markedly reduced the increase in plasma CPK and AST as well as TG elevating activity”. With “EVRSKLEEWIAAIREIAEEILARLKS [Peptide T6991-1]” the “muscle toxicity (plasma CPK activity)” value was “displayed little or no cytotoxic properties related to CPK elevations”. In the case of “T5554-5: E→Q analog bearing citrulline substitutions, net charge −1 (EV[Cit]SKLQEWFAAF[Cit]EFAQEFLARLKS) [Peptide T5554-5]”, the “cytotoxic/toxic response” value is reported as “retained strong toxic (CPK, ALT, and AST) and TG elevating responses”. For “T5594-5: ATI-5261 analog with all lysine residues (R>K substitutions) (EVKSKLEEWFAAFKEFAEEFLAKLKS; synthetic amphipathic alpha-helix cholesterol efflux peptide T5594-5, ATI-5261 analog)”, the “cytotoxic/toxic response” value was “displayed cytotoxic and TG elevating activity”. For “EVRSKLEEWFAAFREFAEEFLARLNS [Peptide T5594-4]”, the “muscle toxicity (plasma CPK activity)” value was “greatly reduced muscle toxicity”. In the case of “T5554-4: E→Q analog bearing citrulline substitutions (EV[Cit]SKLQEWFAAFREFAEEFLARLKS) [Peptide T5554-4]”, the “cytotoxic/toxic response” value is reported as “retained strong toxic (CPK, ALT, and AST) and TG elevating responses”. In the case of “EVRSKLEEWLAALRELAEELLARAKS [Peptide T4883-6]”, the “cytotoxic/toxic response” value is reported as “further reduced cytotoxic response and TG elevating effects” and the “muscle toxicity (plasma CPK activity)” value is reported as “sufficient to eliminate the residual muscle toxicity”. For “EVQSKLEEWLAALQELAEELLARLKS [Peptide T5766-3]”, the “muscle toxicity (plasma CPK activity)” value was “greatly reduced the increase in CPK and TG elevating effects”. In the case of “EARSKAEEWLAALLELAEELLARAKS [Peptide T5211-2]”, the “cytotoxic/toxic response” value is reported as “displayed little or no toxic responses and low TG in plasma”. In the case of “EVRSKLEEWFAAFREFAEEFLARL [Peptide T5766-5]”, the “cytotoxic/toxic response” value is reported as “appeared to reduce the toxic responses” and the “muscle toxicity (plasma CPK activity)” value is reported as “greatly reduced muscle toxicity”. For “EVRSKLEEWLAALRELAEELAARLKS [Peptide T4883-7]”, the “cytotoxic/toxic response” value was “further reduced cytotoxic response and TG elevating effects” and the “muscle toxicity (plasma CPK activity)” value was “sufficient to eliminate the residual muscle toxicity”. With “EVNSKLEEWLAALNELAEELLARLKS [Peptide T5766-4]” the “muscle toxicity (plasma CPK activity)” value was “greatly reduced the increase in CPK and TG elevating effects”. For “EVRSKLQEWFAAFREFAQEFLARLKS [Peptide T5554-1]”, the “cytotoxic/toxic response” value was “produced a large increase in the toxic response”. With “EVRSKLEEWLAALRELAEELLARLKS [Peptide T5055-13]” the “muscle toxicity (plasma CPK activity)” value was “residual toxicity”.

Tested on: not given
Test: not given
Settings: scaled values = (raw log(P) + 2.061)/4.484; cited from earlier work
In the case of C[C@@H](O)[C@H](N)C(=O)O [Threonine], the Hydrophobicity is given as 0.450. In the case of N[C@@H](Cc1ccccc1)C(=O)O [Phenylalanine], the Hydrophobicity is listed as 1.00. In the case of CC(C)[C@H](N)C(=O)O [Valine], the Hydrophobicity is listed as 0.825. For C[C@H](N)C(=O)O [Alanine], the Hydrophobicity is given as 0.616. In the case of NCC(=O)O [Glycine], the Hydrophobicity is given as 0.501. In the case of N[C@@H](CCC(=O)O)C(=O)O [Glutamate], the Hydrophobicity is listed as 0.043. In the case of N[C@@H](Cc1c[nH]cn1)C(=O)O [Histidine], the Hydrophobicity is given as 0.165. For N[C@@H](Cc1c[nH]c2ccccc12)C(=O)O [Tryptophan], the Hydrophobicity is listed as 0.878. For N=C(N)NCCC[C@H](N)C(=O)O [Arginine], the Hydrophobicity is listed as 0.000. For CSCC[C@H](N)C(=O)O [Methionine], the Hydrophobicity is given as 0.738. In the case of N[C@@H](Cc1ccc(O)cc1)C(=O)O [Tyrosine], the Hydrophobicity is listed as 0.880. In the case of CC[C@H](C)[C@H](N)C(=O)O [Isoleucine], the Hydrophobicity is given as 0.943. In the case of NC(=O)C[C@H](N)C(=O)O [Asparagine], the Hydrophobicity is listed as 0.236. For NCCCC[C@H](N)C(=O)O [Lysine], the Hydrophobicity is given as 0.283. In the case of O=C(O)[C@@H]1CCCN1 [Proline], the Hydrophobicity is listed as 0.711.

Molecular target: T1, ABCA1 (Mus musculus, UniProt P41233)
T1 construct: treated (18 h) with a cAMP analog to induce ABCA1 protein expression; endogenous in cells; host or cells: J774 macrophages
T1 sequence (P41233 whole entry): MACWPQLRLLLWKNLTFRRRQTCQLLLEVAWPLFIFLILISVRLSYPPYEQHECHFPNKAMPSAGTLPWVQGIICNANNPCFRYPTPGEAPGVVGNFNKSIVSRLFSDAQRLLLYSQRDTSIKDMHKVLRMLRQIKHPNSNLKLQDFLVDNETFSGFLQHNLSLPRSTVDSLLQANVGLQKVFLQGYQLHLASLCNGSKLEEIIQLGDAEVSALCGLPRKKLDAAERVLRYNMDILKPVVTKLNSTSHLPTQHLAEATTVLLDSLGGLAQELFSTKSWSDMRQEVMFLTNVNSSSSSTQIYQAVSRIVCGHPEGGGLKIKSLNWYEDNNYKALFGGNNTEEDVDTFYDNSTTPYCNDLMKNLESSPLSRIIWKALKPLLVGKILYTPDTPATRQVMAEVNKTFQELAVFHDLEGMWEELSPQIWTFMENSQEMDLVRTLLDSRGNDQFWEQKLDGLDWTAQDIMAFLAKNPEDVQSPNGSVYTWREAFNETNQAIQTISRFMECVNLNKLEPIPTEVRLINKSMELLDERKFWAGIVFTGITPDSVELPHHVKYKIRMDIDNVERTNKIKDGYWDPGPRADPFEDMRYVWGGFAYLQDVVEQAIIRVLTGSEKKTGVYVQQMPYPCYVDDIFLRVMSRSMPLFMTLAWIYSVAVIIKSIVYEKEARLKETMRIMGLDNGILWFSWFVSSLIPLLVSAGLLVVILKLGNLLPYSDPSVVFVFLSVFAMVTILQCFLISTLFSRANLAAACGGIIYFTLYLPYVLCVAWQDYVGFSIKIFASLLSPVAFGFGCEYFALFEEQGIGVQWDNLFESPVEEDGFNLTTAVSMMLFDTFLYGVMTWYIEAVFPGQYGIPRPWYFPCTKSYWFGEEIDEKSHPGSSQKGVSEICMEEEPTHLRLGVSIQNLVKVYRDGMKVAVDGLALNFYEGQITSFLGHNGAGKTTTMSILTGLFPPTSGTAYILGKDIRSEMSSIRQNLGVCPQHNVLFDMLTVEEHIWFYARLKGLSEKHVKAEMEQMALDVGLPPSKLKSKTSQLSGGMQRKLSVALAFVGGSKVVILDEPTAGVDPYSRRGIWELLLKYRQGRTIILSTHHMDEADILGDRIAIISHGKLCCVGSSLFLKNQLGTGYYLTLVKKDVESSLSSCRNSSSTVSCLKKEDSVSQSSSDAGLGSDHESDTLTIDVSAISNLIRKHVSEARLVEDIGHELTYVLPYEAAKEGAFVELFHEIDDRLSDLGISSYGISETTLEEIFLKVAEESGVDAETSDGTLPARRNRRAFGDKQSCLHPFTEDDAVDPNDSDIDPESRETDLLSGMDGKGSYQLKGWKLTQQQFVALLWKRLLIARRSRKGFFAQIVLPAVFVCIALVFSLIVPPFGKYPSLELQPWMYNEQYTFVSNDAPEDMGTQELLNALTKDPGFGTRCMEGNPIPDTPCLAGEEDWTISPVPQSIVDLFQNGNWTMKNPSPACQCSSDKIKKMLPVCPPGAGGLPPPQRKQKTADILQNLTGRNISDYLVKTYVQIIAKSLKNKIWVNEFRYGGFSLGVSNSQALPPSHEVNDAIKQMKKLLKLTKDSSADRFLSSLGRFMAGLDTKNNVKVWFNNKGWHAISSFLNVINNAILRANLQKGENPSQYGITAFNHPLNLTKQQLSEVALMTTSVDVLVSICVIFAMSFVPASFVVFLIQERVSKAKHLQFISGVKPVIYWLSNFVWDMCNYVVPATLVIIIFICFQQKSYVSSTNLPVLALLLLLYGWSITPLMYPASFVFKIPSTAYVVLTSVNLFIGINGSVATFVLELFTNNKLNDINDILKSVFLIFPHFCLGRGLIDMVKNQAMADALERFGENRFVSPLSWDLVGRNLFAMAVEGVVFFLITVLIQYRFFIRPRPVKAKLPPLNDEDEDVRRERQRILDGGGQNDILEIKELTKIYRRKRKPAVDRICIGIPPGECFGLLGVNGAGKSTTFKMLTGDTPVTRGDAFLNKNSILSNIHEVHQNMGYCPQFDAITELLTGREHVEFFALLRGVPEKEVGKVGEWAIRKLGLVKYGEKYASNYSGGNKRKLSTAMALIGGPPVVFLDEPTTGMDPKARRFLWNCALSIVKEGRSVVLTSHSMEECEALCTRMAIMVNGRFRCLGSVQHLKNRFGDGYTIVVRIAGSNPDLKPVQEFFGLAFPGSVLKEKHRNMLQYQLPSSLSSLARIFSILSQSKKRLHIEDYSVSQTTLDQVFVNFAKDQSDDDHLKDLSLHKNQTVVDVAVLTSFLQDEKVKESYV
Test: ABCA1-dependent cholesterol efflux from [3H]cholesterol-labeled J774 macrophages with and without cAMP
Format: cell-based
Settings: cAMP treated J774, dose response, 4 h
Text: Suitable cholesterol efflux assays are described in, e.g., Bielicki, J. K and Oda, M. N., Biochemistry, 41:2089-2096 (2002); Jia et al., Biochem. Biophys. Res. Common., 297:206-213 (2002). In some embodiments, a polypeptide known to mediate cholesterol efflux (e.g., helix 9/10 of Apo A-I) is used to screen for additional mediators of cholesterol efflux in a cell based assay. For example, cell lines in which cholesterol efflux can be enhanced using a cAMP analog that up-regulates ABCA1 protein expression (e.g., J774 macrophages) can conveniently be used to assess the ability of a polypeptide of the present invention to mediate cholesterol efflux. The cells are incubated with labeled cholesterol (e.g., [^3H]cholesterol) under conditions appropriate for cholesterol uptake by the cells. Thus, cAMP or cAMP analogs (e.g., CPT-cAMP) are incubated with the cells for a suitable time before the initiation of cellular cholesterol efflux, i.e., prior to contacting the cells with a test polypeptide. Measurement of labeled cholesterol appearing in the medium is used to determine the cholesterol efflux mediating activity of the test polypeptide.
Aliphatic analogs of ATI-5261 lacking phenylalanine residues retained potent ABCA1 selective cholesterol efflux activity (FIG. 7). J774 macrophages were labeled (48 h) with [^3H]cholesterol and treated (18 h) with a cAMP analog to induce ABCA1 protein expression; cells incubated in the absence of cAMP (left bars) served as controls. […] Peptides were used at a concentration of 30 μg/ml, which was maximal for promoting cholesterol efflux activity. Panel B—Dependence of cholesterol efflux on the concentration of peptides. […] Results are expressed as the difference in cholesterol efflux (%/4 h) observed using cAMP treated vs. non-treated J774 cells. Values are means±SD, n=3.
With “T6275-5: citrulline form of LeuATI-5261 with single citrulline14→L substitution (EV[Cit]SKLEEWLAALLELAEELLARLKS) [Peptide T6275-5]” the “peptide concentration at saturation of cholesterol efflux” value (shortened to “peptide concentration at saturation”) was 3 µg/mL. For “T5505-9: ATI-5261 analog with L24A; W9L substitutions (EVRSKLEELLAALRELAEELLARAKS; synthetic amphipathic alpha-helix cholesterol efflux peptide T5505-9, LeuATI-5261 analog)”, the “Km for cholesterol efflux” value was 0.58 µg/mL and the “peptide concentration at saturation” value was ~3 µg/mL. In the case of “T7983-11: Y26 analog of T6991-2 (S26→Y for 125I labeling) (EV[Cit]SKLEEWIAAI[Cit]EIAEEILARLKY) [Peptide T7983-11]”, the “peptide concentration at saturation” value is reported as 3 µg/mL.

Molecular target: T1, ABCA1
Test: as above
Format: cell-based
Settings: J774, cAMP vs no cAMP; 10 μg/ml lipid-free
For “CS6259: leucine form of ATI-5261 with glutamine at positions 3 and 23 and a chemical staple (EVQSKLEEWLAAL[R8]ELAEEL[S5]AQLKS; staple 14-21)”, the “ABCA1-dependent cholesterol efflux activity” value was “highly dependent on ABCA1 comparable to ATI-5261”. For “CS6257: ATI-5261 with uncharged alanine at positions 3 and 23 and a chemical staple (EVASKLEEWFAAF[S5]EFAEEF[R8]AALKS; staple 14-21)”, the “ABCA1-dependent cholesterol efflux activity” value was “highly dependent on ABCA1 comparable to ATI-5261”. For “CS6256A: ATI-5261 with glutamine at positions 3 and 23 and a chemical staple (EVQSKLEEWFAAF[S5]EFAEEF[R8]AQLKS; staple 14-21)”, the “ABCA1-dependent cholesterol efflux activity” value was “highly dependent on ABCA1 comparable to ATI-5261”. With “T7983-11: Y26 analog of T6991-2 (S26→Y for 125I labeling) (EV[Cit]SKLEEWIAAI[Cit]EIAEEILARLKY) [Peptide T7983-11]” the “ABCA1-dependent cholesterol efflux activity” value was “functional, mediating high-levels of cholesterol efflux in an ABCA1-dependent manner”.
